Broadly, the pIC50 is −log10 of the IC50, conventionally taken in molar units.

From patent US8268836B2, “Compound useful as a c-Met inhibitor” (Eli Lilly and Company, priority 2010, dated 2012) come the findings set out here.

pIC50: −log10 of the molar value. Structures can show the parent of a compound that is named as a salt.

The target of one assay is cMet enzyme (Homo sapiens, UniProt P08581). Description: cMet Homogeneous Time Resolved Fluorescence (HTRF) in vitro assay. It is filed as biochemical. Particulars: relative IC50; read-out: c-Met IC50 (HTRF). From the text:
This assay is based on HTRF technology and it is used to detect the phosphorylation of biotin labeled tyrosine peptide by cMet enzyme. After the reaction is completed, XL665 labeled streptavidin is used to recognize the biotin unit and a Europium (Eu3+) labeled anti-phospho-tyrosine antibody is used to recognize the phosphorylated tyrosine. The detection process relies on the transfer of energy between the excited Eu3+ and the XL665 labeled streptavidin. The aim of this protocol is to calculate the ability of test compounds to inhibit the phosphorylation of the product of this reaction and calculate their relative IC50 values.
A reference compound, if desired, may be prepared as a 1 mM stock solution in 100% DMSO and test compounds are prepared as 10 mM stock solutions in 100% DMSO. 1 mM reference compound and 10 mM test compounds are pre-diluted to 8 μM and 80 μM 10% DMSO solutions in a 96-well dilution plate. Compounds are serially diluted (1:3) using Tecan Freedom EVO 200 and 10-point dilution curves are generated for each of the compounds tested. 10 μL of serially diluted compounds are transferred to a 96-well assay plate using Temo (Tecan). […] The assay plate is incubated at RT for 60 min before reading the fluorescence signals at 620 nm emission and 665 nm […] in a Victor3 instrument (PerkinElmer Corporation). […]
In general terms: TR-FRET usually uses a lanthanide donor and a delayed reading to cut background.

Assay [1] addresses T1, Met (pY1349) in NCl-H460 cells (Homo sapiens, UniProt P08581).
T1 construct: host or cells: NCI-H460
Description: HGF stimulated Met (pY1349) NCI-H460 cell-based ELISA. The note with it: HGF 100 ng/mL stimulated NCI-H460 cells; read-out: relative IC50, H460 assay (c-Met phosphorylation). As to the method: NCl—H460 cells (purchased from ATCC) are cultured in RPMI 1640 media (Invitrogen) supplemented with 10% Fetal Bovine Serum (FBS) and plated (prior to becoming 70% confluent) in 96-well flat-bottom plates at a density of 20,000 cells per well in 80 μL volume. The cells are then incubated overnight in a cell culture incubator (5% CO2, 95% Relative Humidity (RH) and 37° C.) and allowed to attach to the plate. The following morning the cells are washed with 2 volumes of a Reduced Serum Media (RSM, RPMI 1640 media supplemented with 0.5% FBS). After removal of the last wash, 80 μL of RSM is added to each well of the cell plates. The cell plates are incubated for 2.5 h in a cell culture incubator, and then dosed with compounds. Compound inhibitors are first solubilized at 10 mM in 100% DMSO and then diluted to 100 μM with 2% DMSO RSM. […] After 1 h capture (at RT) the MSD® plate wells are washed with 1× Tris Wash Buffer, and then 150 μL of 1× Read Buffer T (with surfactant, MSD®) is added. Immediately after the addition of the Read Buffer, the plates are analyzed with a SECTOR 6000 MSD® Imager plate reader. Relative IC50 values are determined using MSD activity units by calculating percent inhibition with respect to on-plate “MIN” and “MAX” controls and then fitting the percent inhibition values and ten-point dose response data to a four-parameter logistic equation.

Sequence of cMet enzyme (P08581 25-1390): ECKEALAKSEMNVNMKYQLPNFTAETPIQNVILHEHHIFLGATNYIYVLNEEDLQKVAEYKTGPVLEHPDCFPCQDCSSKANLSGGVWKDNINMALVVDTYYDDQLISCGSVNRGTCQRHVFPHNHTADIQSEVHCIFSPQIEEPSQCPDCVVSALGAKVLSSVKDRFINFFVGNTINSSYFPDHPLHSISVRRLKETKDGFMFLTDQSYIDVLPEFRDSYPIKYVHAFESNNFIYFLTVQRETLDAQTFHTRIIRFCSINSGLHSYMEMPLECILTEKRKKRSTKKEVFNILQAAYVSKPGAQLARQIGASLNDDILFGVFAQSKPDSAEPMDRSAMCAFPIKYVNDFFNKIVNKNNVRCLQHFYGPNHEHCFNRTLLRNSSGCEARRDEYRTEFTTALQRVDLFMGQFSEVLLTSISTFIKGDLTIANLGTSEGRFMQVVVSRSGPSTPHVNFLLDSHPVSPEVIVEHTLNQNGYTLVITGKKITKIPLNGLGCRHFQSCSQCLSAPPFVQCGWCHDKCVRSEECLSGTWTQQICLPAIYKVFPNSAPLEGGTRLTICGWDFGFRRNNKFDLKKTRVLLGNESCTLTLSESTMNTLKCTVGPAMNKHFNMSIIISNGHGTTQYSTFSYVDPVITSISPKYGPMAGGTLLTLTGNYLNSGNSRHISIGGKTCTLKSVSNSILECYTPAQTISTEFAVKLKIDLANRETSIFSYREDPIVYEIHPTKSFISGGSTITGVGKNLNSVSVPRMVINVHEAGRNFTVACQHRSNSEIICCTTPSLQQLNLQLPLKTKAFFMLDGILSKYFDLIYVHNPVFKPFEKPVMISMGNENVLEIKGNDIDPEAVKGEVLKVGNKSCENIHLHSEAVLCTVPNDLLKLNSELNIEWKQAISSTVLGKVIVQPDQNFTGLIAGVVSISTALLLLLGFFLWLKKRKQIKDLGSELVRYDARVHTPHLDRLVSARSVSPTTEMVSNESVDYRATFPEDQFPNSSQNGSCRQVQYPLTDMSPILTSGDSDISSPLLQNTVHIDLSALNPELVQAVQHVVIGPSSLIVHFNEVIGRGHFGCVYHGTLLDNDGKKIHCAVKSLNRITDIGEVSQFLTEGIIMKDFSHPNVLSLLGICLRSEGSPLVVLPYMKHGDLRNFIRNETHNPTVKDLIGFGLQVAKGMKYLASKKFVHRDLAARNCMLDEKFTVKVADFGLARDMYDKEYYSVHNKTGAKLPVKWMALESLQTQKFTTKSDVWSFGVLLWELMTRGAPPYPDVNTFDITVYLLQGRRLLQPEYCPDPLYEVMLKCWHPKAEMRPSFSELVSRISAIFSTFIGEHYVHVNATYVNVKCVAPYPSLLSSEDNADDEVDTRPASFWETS
T1 sequence (P08581 25-1390): as above

In the case of `Cn1cc(-c2ccc3nnc(Sc4ccc5nn(C)cc5c4)n3n2)cn1` [mesylate salt form of example 1], the pIC50 at cMet enzyme was 7.60; in assay [1] it was 7.42.
